Values after ≈ are worked out from the molar mass of the structure shown.
Columns and labels:
Assay in all cases: MIC by agar-dilution technique, Jewell and Pearmain agar
Format in all cases: cell-based
[1] = tested on: Salmonella dublin; conditions: Salmonella enterica, Code No. A20, inoculum ~10^5 CFU
Text: (§1) The results set out in the following Table are illustrative of the biological activity of the compounds of the present invention. […] The following results are those obtained on a standard in vitro test system using Jewell and Pearmain agar medium. The antibacterial activity is described in terms of the minimum inhibitory concentration (MIC) determined by agar-dilution technique with an inoculum size of ~10^5 CFU.

[2] = tested on: Ps. aeruginosa; conditions: Pseudomonas aeruginosa, Code No. A21, inoculum ~10^5 CFU
Text: as §1

[3] = tested on: Proteus mirabilis; conditions: Code No. A18, inoculum ~10^5 CFU
Text: as §1

[4] = tested on: Ent. cloacae; conditions: Enterobacter cloacae, Code No. A13, inoculum ~10^5 CFU
Text: as §1

[5] = tested on: E. coli; conditions: Escherichia coli, Code No. A8, inoculum ~10^5 CFU
Text: as §1

[6] = tested on: Staph. aureus; conditions: Staphylococcus aureus, Code No. A6, inoculum ~10^5 CFU
Text: as §1

[7] = tested on: K. aerogenes; conditions: Klebsiella aerogenes, Code No. A10, inoculum ~10^5 CFU
Text: as §1

[8] = tested on: Strep. pyogenes; conditions: Streptococcus pyogenes, Code No. A1, inoculum ~10^5 CFU
Text: as §1

[9] = tested on: Serratia marescens; conditions: Code No. A16, inoculum ~10^5 CFU
Text: as §1

SMILES | MIC [1] | MIC [2] | MIC [3] | MIC [4] | MIC [5] | MIC [6] | MIC [7] | MIC [8] | MIC [9]
O=C(O)C1=C(CSc2c[nH]nn2)CS[C@@H]2[C@H](Nc3nc(CCNC(=O)C(F)(F)F)c[nH]3)C(=O)N12 [Example 10, 7-[4-(2-trifluoroacetylaminoethyl)imidazol-2-yl]amino-3-(1H-1,2,3-triazol-4-yl)thiomethylceph-3-em-4-carboxylic acid] | 0.016 µg/mL (≈ 0.0309 µM) | > 256 µg/mL | 2 µg/mL (≈ 3.86 µM) | 16 µg/mL (≈ 30.9 µM) | 0.03 µg/mL (≈ 0.0579 µM) | 64 µg/mL (≈ 123 µM) | 0.06 µg/mL (≈ 0.116 µM) | 64 µg/mL (≈ 123 µM) | 16 µg/mL (≈ 30.9 µM)
O=C(O)C1=C(CSc2c[nH]nn2)CS[C@@H]2[C@H](Nc3nc(CCCNC(=S)NCC(F)(F)F)c[nH]3)C(=O)N12 [Example 80, 7-[4-(3-[3-(2,2,2-trifluoroethyl)thioureido]propyl)imidazol-2-yl]amino-3-(1H-1,2,3-triazol-4-yl)thiomethylceph-3-em-4-carboxylic acid] | 0.5 µg/mL (≈ 0.866 µM) | > 128 µg/mL | 4 µg/mL (≈ 6.92 µM) | 4 µg/mL (≈ 6.92 µM) | 1 µg/mL (≈ 1.73 µM) | 32 µg/mL (≈ 55.4 µM) | 2 µg/mL (≈ 3.46 µM) | 32 µg/mL (≈ 55.4 µM) | 64 µg/mL (≈ 111 µM)
CNC(=O)OCCCc1c[nH]c(N[C@@H]2C(=O)N3C(C(=O)O)=C(COC(C)=O)CS[C@H]23)n1 [Example 9.2, 7-[4-(3-methylcarbamoyloxypropyl)imidazol-2-yl]amino-3-acetoxymethylceph-3-em-4-carboxylic acid] | 0.06 µg/mL (≈ 0.132 µM) | > 256 µg/mL | 8 µg/mL (≈ 17.6 µM) | 64 µg/mL (≈ 141 µM) | 0.03 µg/mL (≈ 0.0662 µM) | 64 µg/mL (≈ 141 µM) | 0.06 µg/mL (≈ 0.132 µM) | 32 µg/mL (≈ 70.6 µM) | 8 µg/mL (≈ 17.6 µM)
Cn1nnnc1SCC1=C(C(=O)O)N2C(=O)[C@@H](Nc3nc(CCC#N)c[nH]3)[C@H]2SC1 [Example 16, 7-[4-(2-cyanoethyl)imidazol-2-yl]amino-3-(1-methyl-1H-tetrazol-5-yl)thiomethylceph-3-em-4-carboxylic acid] | 0.008 µg/mL (≈ 0.0179 µM) | > 128 µg/mL | 1 µg/mL (≈ 2.23 µM) | 4 µg/mL (≈ 8.94 µM) | 0.016 µg/mL (≈ 0.0358 µM) | 16 µg/mL (≈ 35.8 µM) | 0.06 µg/mL (≈ 0.134 µM) | 8 µg/mL (≈ 17.9 µM) | 2 µg/mL (≈ 4.47 µM)
Cc1nnc(SCC2=C(C(=O)O)N3C(=O)[C@@H](Nc4nc(CCNC(=O)C(F)(F)F)c[nH]4)[C@H]3SC2)s1 [Example 4.2, 7-[4-(2-trifluoroacetylaminoethyl)imidazol-2-yl]amino-3-(2-methyl-1,3,4-thiadiazol-5-yl)thiomethylceph-3-em-4-carboxylic acid] | 0.25 µg/mL (≈ 0.455 µM) | > 256 µg/mL | 16 µg/mL (≈ 29.1 µM) | 16 µg/mL (≈ 29.1 µM) | 0.12 µg/mL (≈ 0.218 µM) | 32 µg/mL (≈ 58.2 µM) | 0.12 µg/mL (≈ 0.218 µM) | 16 µg/mL (≈ 29.1 µM) | 4 µg/mL (≈ 7.28 µM)
CC(=O)OCC1=C(C(=O)O)N2C(=O)[C@@H](Nc3nc(Cc4ccccc4)c[nH]3)[C@H]2SC1 [Example 1, 7-(4-benzylimidazol-2-yl)amino-3-acetoxymethylceph-3-em-4-carboxylic acid] | 0.5 µg/mL (≈ 1.17 µM) | > 256 µg/mL | 32 µg/mL (≈ 74.7 µM) | 128 µg/mL (≈ 299 µM) | 0.25 µg/mL (≈ 0.583 µM) | 32 µg/mL (≈ 74.7 µM) | 1 µg/mL (≈ 2.33 µM) | – | 64 µg/mL (≈ 149 µM)
C=CCc1c[nH]c(N[C@@H]2C(=O)N3C(C(=O)O)=C(CSc4nnnn4C)CS[C@H]23)n1 [Example 6.1, 7-(4-allylimidazol-2-yl)amino-3-(1-methyl-1H-tetrazol-5-yl)thiomethylceph-3-em-4-carboxylic acid] | 0.016 µg/mL (≈ 0.0368 µM) | > 256 µg/mL | 2 µg/mL (≈ 4.6 µM) | 16 µg/mL (≈ 36.8 µM) | 0.016 µg/mL (≈ 0.0368 µM) | 32 µg/mL (≈ 73.6 µM) | 0.03 µg/mL (≈ 0.069 µM) | 8 µg/mL (≈ 18.4 µM) | 0.25 µg/mL (≈ 0.575 µM)

Reference: US4492692A, “Cephalosporin derivatives” (Imperial Chemical Industries PLC, priority 1980, dated 1985)
